The numbers were not newly measured in publication PMC11328599, “Crystal structure of dihydroneopterin aldolase from Mycobacterium tuberculosis associated with 8-mercaptoguanine, and development of novel S8-functionalized analogues as inhibitors: Synthesis, enzyme inhibition, in vitro toxicity and antitubercular activity” (Journal of Enzyme Inhibition and Medicinal Chemistry, 2024), which cites them from elsewhere.

The target in this series is T1, MtFolB (Mycobacterium tuberculosis, UniProt P9WNC5).
T1 construct: made in house
Also noted: method as in PMID 33752554. The settings on record: previously reported; cited from earlier work.

T1 sequence (P9WNC5 whole entry): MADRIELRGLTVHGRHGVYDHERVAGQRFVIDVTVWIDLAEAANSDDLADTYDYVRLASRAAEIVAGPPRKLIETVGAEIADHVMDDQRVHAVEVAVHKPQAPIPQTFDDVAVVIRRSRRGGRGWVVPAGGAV

In the case of `Nc1nc2nc(S)[nH]c2c(=O)[nH]1` [Compound 8-MG, 8-mercaptoguanine], the Inhibition mode entry is given as “non-competitive”.
